Publication PMC10693631, “A multi-reservoir extruder for time-resolved serial protein crystallography and compound screening at X-ray free-electron lasers” (Nature Communications, 2023)

Target: T1, Krokinobacter eikastus rhodopsin 2 (KR2) (Dokdonia eikasta, UniProt N0DKS8)
T1 construct: gene NaR; light-driven sodium pump, membrane protein crystallised in monoolein LCP; expression and purification only cited
T1 sequence (N0DKS8 1-280): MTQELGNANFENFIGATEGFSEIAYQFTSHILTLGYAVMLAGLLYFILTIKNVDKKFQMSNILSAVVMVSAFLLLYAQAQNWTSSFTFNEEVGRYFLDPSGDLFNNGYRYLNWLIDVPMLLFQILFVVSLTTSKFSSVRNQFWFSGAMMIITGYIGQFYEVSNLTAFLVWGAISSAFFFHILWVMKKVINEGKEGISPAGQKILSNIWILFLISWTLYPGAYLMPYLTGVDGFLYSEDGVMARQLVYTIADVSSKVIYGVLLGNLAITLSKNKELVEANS
Assay: time-resolved serial femtosecond crystallography (XFEL, room temperature), dark state
Format: binding
Conditions: covalent, light state 1 us after 575 nm pulse deposited as 8CL8, crystals shifted to pH 9.0, 150 mM NaCl

For CC1=C(/C=C/C(C)=C/C=C/C(C)=C/C=O)C(C)(C)CCC1 [retinal], the “time-resolved serial femtosecond crystallography (XFEL, room temperature), dark” value was “examining structural changes after photoactivation of its retinal chromophore”.
